Experimental findings from US20240108740A1, “THERAPEUTIC COMPOSITIONS INCLUDING SPN10 AND USES THEREOF” (Stealth BioTherapeutics Inc., priority 2022, published 2024) are described below.

For assay [1], the system named is CD36 knockout (CD36 KO) mice. Nature of the assay: Example 3: acute cerebral ischemia in CD36 knockout mice. Type of assay: in vivo, mouse. As to the method: CD36 knockout (CD36 KO) mice will be subjected to acute cerebral ischemia as described in Example 2. CD36 KO mice will be given either saline vehicle (Veh) (i.p., n=5), peptide conjugates (2 mg/kg or 5 mg/kg, i.p., n=6), aromatic-cationic peptides (e.g., an equivalent molar dose of aromatic-cationic peptide based on the concentration of the aromatic-cationic peptide administered in the peptide conjugate treatment group), SPN10(s) (e.g., an equivalent molar dose of SPN10 based on the concentration of SPN10 administered in the peptide conjugate treatment group), or SPN10(s) in combination with aromatic-cationic peptides (e.g., an equivalent molar dose of SPN10 based on the concentration of SPN10 administered in the peptide conjugate treatment group and an equivalent molar dose of aromatic-cationic peptide based on the concentration of aromatic-cationic peptide administered in the peptide conjugate treatment group) at 0, 6, 24 and 48 hours following a 30 minute period of ischemia. Infarct volume and hemispheric swelling in CD36 KO mice are expected to be similar in subjects receiving saline, SPN10(s) (alone or in combination with aromatic-cationic peptides), aromatic-cationic peptides and peptide conjugates.

Assay [2] has as its system Sprague-Dawley rats. Briefly: Example 32: mitochondrial dysfunction in rats fed a high-fat diet. The following applies: rat, in vivo. Here is the method:
Animals and reagents. Thirty male Sprague-Dawley rats will be obtained from Charles River Laboratory (Wilmington, MA) and housed in a temperature (22° C.) and light controlled room with free access to food and water. Twenty of the animals will be maintained on a high (60%) fat diet (Research Dyets, Bethlehem, PA). Skeletal muscle will be obtained from anesthetized animals (100 mg/kg i.p. ketamine-xylazine). After surgery, animals will be sacrificed by cervical dislocation while anesthetized. Amplex Red Ultra reagent will be obtained from Molecular Probes (Eugene, OR). Stigmatellin and horseradish peroxidase (HRP) will be obtained from Fluka Biochemika (Buchs, Switzerland). All other chemicals will be purchased from Sigma-Aldrich (St. Louis, MO). […]
Mitochondrial respiration and H2O2 production measurements. […] Mitochondrial H2O2 production will be measured at 30° C. during state 4 respiration in buffer Z (10 μg/mL oligomycin) by continuously monitoring oxidation of Amplex Red using a Spex Fluoromax 3 (Jobin Yvon, Ltd.) spectrofluorometer with temperature control and magnetic stirring at >1000 rpm. […] After baseline fluorescence (reactants only) is established, the reaction will be initiated by addition of a permeabilized fiber bundle to 300 μL of buffer Z containing 5 μM Amplex Red and 0.5 U/mL HRP, with succinate at […]. […]

Assay [3] concerns human retinal epithelial cells (HREC). Nature of the assay: Example 55: high glucose-induced injury. Format: cell-based. Here is the method:
Methods of HREC culture useful in the studies of the present technology are known. See generally, Li, et al., Clin. Ophthal. Res. 23:20-2 (2005); Premanand, et al., Invest. Ophthalmol. Vis. Sci. 47:2179-84 (2006). Briefly, HREC cells will be cultured under one of these conditions: 1) normal control; 2) 30 mM glucose; 3) 30 mM glucose+peptide conjugates; 4) 30 mM glucose+an aromatic-cationic peptide; 5) 30 mM glucose+SPN10; 6) 30 mM glucose+SPN10+aromatic-cationic peptides. Survival of HRECs in high glucose co-treated with various concentrations of peptide conjugates (10 nM, 100 nM, 1 μM, 10 μM) will be measured by flow cytometry using Annexin V. See generally, Koopman, et al., Blood 84:1415 (1994); Homburg, et al., Blood X5: 532 (1995); Vermes, et al. J. Immunol. Meth. 184:39 (1995); Fadok, et al., J. Immunol. 148:2207 (1992).
The survival of HRECs in high glucose co-treated with peptide conjugates, aromatic-cationic peptides, or SPN10(s) with or without aromatic-cationic peptides will be tested at 24 hours and 48 hours.
It is expected that glucose (30 mmol/L) will induce cytochrome c release from the mitochondria of HRECs. Fixed HRECs will be immunolabeled with a cytochrome c antibody and a mitochondrial specific protein antibody (HSP60).

Residues, ends and D or L forms follow the SMILES beside them.

`N=C(N)NCCC[C@H](NC(=O)[C@@H](N)Cc1c[nH]c2ccccc12)C(=O)N[C@@H](Cc1c[nH]c2ccccc12)C(=O)N[C@@H](CCCCN)C(N)=O` [SPN10, H-L-Trp-L-Arg-L-Trp-L-Lys-NH2] (H-WRWK-NH2): the “infarct volume and hemispheric swelling in CD36 KO mice” value in assay [1] (compared with saline) is on record as “similar”. Moreover, the “GSH depletion in the ipsilateral cortex in CD36 KO mice” value in assay [1] (mouse, in vivo) is recorded as “fail to further prevent GSH depletion”. The “mitochondrial dysfunction under a high-fat diet” value in assay [2] is “reduce mitochondrial dysfunction”. In addition, the “production of ROS” value in assay [3] (30 mM glucose) is “reduce the production of ROS”. For the same compound, the “survival of HRECs in high glucose (Annexin V)” value in assay [3] (30 mM glucose, 24 hours and 48 hours) is recorded as “significantly improved”. In addition, the “glucose-induced release of cytochrome c from mitochondria to cytoplasm” value in assay [3] (30 mmol/L glucose, 24 or 48 hours) is given as “prevent or attenuate this effect”. Further, in assay [3] (24 or 48 hours), the “loss of mitochondrial membrane potential by high glucose (TMRM)” value is reported as “prevent or attenuate this effect”.
